According to article PMC8605905 (Oxidative Medicine and Cellular Longevity, 2021):

Columns and labels:
Aβ-GFP SH-SY5Y cells [1] = experiment: Real-time PCR of Aβ-GFP RNA; assay type: cell-based, Human; details: 5 μM
Experimental: To measure the Aβ-GFP/tauRD-DsRed RNA expression on day 8, total RNA was extracted from collected cells and reverse-transcribed to cDNA (SuperScript III reverse transcriptase; Invitrogen, Waltham, MA, USA). Real-time quantitative PCR was performed using 100 ng of cDNA and the gene-specific TaqMan fluorogenic probe PN4331348 (EGFP) or customized Assays-by-Design probe for DsRed and 4326321E (HPRT1) (StepOnePlus Real-time PCR system, Applied Biosystems, Foster City, CA, USA). The RNA expression level was calculated using the formula 2^ΔCt, ΔCT = CT (control) − CT (target), in which CT indicates the cycle threshold.

Aβ-GFP SH-SY5Y cells [2] = experiment: ROS assay (CellROX Orange) in Aβ-GFP cells; assay type: cell-based, Human; details: tested 1.2–5 μM
Experimental: On day 1, Aβ-GFP or ∆K280 tauRD-DsRed SH-SY5Y cells were seeded into 96-well plates (2.5 × 10^4/well) and treated with retinoic acid (10 μM; Sigma-Aldrich) to prompt neuronal differentiation. […] On day 8, cells were stained with Hoechst 33342 (0.1 μg/ml; Sigma-Aldrich) for 30 min, and cell images were automatically captured at excitation/emission wavelengths of 482/[…] (GFP fluorescence) or 543/593 nm (DsRed fluorescence) using a high content analysis (HCA) system (Micro Confocal High-Content Imaging System). Image Acquisition and Analysis Software (MetaXpress) (Molecular Devices, Sunnyvale, CA, USA) was used to analyse the images. CellROX Orange (5 μM; Molecular Probes, Eugene, OR, USA) (for Aβ-GFP cells) or dichloro-dihydro-fluorescein diacetate (DCFH-DA, 10 μM; Invitrogen) (for ∆K280 tauRD-DsRed cells) was added to the cells and incubated at 37°C for 30 min. The HCA system was used to measure intracellular ROS at 531/593 nm (CellROX Orange fluorescence) or 482/536 nm (DCFH-DA fluorescence) of excitation/emission wavelengths.

Aβ-GFP SH-SY5Y cells [3] = experiment: High content analysis of neurite outgrowth in Aβ-GFP cells; assay type: cell-based, Human; details: 5 μM
Experimental: On day 1, Aβ-GFP or ∆K280 tauRD-DsRed SH-SY5Y cells were plated into 24-well plates (6 × 10^4/well) followed by addition of retinoic acid. On day 2, cells were treated with coumarin-chalcone derivatives (5 or 10 μM) and with doxycycline (5 or 2 μg/ml) to induce the expression of Aβ-GFP or ∆K280 tauRD-DsRed. On day 8, 4% paraformaldehyde, 0.1% Triton X-100, and 3% BSA were used to fix, permeabilize, and block cells, respectively. Subsequently, the cells were stained with TUBB3 (neuronal class III β-tubulin) primary antibody (1 : 1000; Covance, Princeton, NJ, USA) at 4°C overnight. Goat anti-rabbit Alexa Fluor 555 secondary antibody (1 : 1000; Thermo Fisher Scientific) was then added, followed by a 3 h incubation at room temperature. Following staining nuclei with 4′,-6-diamidino-2-phenylindole (DAPI) (0.1 μg/ml; Sigma-Aldrich), the neurons were imaged by using the HCA system and analysed by using the Neurite Outgrowth Application Module (MetaXpress; Molecular Devices).
To monitor the cAMP-mediated signal transduction pathway, CRE-GFP 293 cells in 6-well plates (1 × 10^6/well) were pretreated with kinase inhibitor H-89 (LC Laboratories, Woburn, MA, USA), KN-62 (Cayman Chemical, Ann Arbor, MI, USA), U0126 (LC Laboratories), or wortmannin (LC Laboratories) (10 μM) for 4 h before forskolin or LM-021 (10 μM) addition for 5 h. GFP fluorescence/protein and total/phosphorylated PKA, CaMKII, ERK, PI3K, and CREB levels were examined. In addition, Aβ-GFP or ∆K280 tauRD-DsRed SH-SY5Y cells were treated with retinoic acid (10 μM) on day 1, followed by the addition of LM-021 (5 or 10 μM) and doxycycline (5 or 2 μg/ml) on day 2, as described. Kinase inhibitors (10 μM) were added on day 6. On day 8, the cells were collected for protein expression analysis of BDNF, BCL2 (BCL2 apoptosis regulator), and BAX (BCL2 associated X, apoptosis regulator), and total/phosphorylated PKA, CaMKII, ERK, PI3K, and CREB. Also, cells were stained with DAPI and assessed for neurite outgrowth as described above.

[4] = tested on: Acetylcholinesterase (AChE); experiment: AChE activity in Aβ-GFP cells; assay type: cell-based; details: 5 μM, vs untreated cells
Experimental: (§1) Aβ-GFP or ∆K280 tauRD-DsRed SH-SY5Y cells were seeded into 6-well plates (5 × 10^5/well) and treated with retinoic acid, coumarin-chalcone derivatives, and doxycycline as previously described. On day 8, cells were collected and lysates were prepared with six freeze/thaw cycles. The supernatant was collected by centrifugation, followed by measurement of the caspase 1 activity in 50 μg aliquots of cell extract using the ICE fluorometric assay kit (BioVision, Milpitas, CA, USA). Following incubation of the mixture at 37°C for 2 h, fluorescence was measured with excitation/emission wavelengths at 400/505 nm (FLx800 fluorescence microplate reader). In addition, the collected cells were lysed by sonication. Acetylcholinesterase (AChE) activity in the supernatant was determined in 10 μg aliquots of cell extracts using the AChE activity assay kit (Sigma-Aldrich) according to the manufacture's protocol. Finally, the absorbance at 412 nm was measured using a Multiskan GO spectrophotometer (Thermo Fisher Scientific).

caspase 1 = experiment: Caspase 1 activity in Aβ-GFP cells; assay type: cell-based, Human; details: 5 μM, vs untreated cells
Experimental: as §1

Aβ-GFP SH-SY5Y cells [5] = experiment: High content analysis of Aβ-GFP fluorescence; assay type: cell-based, Human
Experimental: Human neuroblastoma SH-SY5Y-derived Aβ-GFP [23] and ∆K280 tauRD-DsRed cells were kept in DMEM/nutrient mixture F12 (DMEM/F12) containing 10% FBS, 5 μg/ml blasticidin, and 100 μg/ml hygromycin (InvivoGen, San Diego, CA, USA). Doxycycline (Sigma-Aldrich) was applied to induce the expression of Aβ-GFP (5 μg/ml doxycycline) or ∆K280 tauRD-DsRed (2 μg/ml doxycycline).
On day 1, Aβ-GFP or ∆K280 tauRD-DsRed SH-SY5Y cells were seeded into 96-well plates (2.5 × 10^4/well) and treated with retinoic acid (10 μM; Sigma-Aldrich) to prompt neuronal differentiation. […] Image Acquisition and Analysis Software (MetaXpress) (Molecular Devices, Sunnyvale, CA, USA) was used to analyse the images. CellROX Orange (5 μM; Molecular Probes, Eugene, OR, USA) (for Aβ-GFP cells) or dichloro-dihydro-fluorescein diacetate (DCFH-DA, 10 μM; Invitrogen) (for ∆K280 tauRD-DsRed cells) was added to the cells and incubated at 37°C for 30 min.

[6] = DPPH radical-scavenging assay; details: compounds 10–160 μM, 100 μM DPPH, 30 min, n = 3
Experimental: Stable free radical 1,1-diphenyl-2-picrylhydrazyl (DPPH) (Sigma-Aldrich) was applied to test the potential radical-scavenging activity of the coumarin-chalcone derivatives. In brief, the compounds (10–160 μM) were added to an ethanol solution containing 100 μM DPPH. The mixture was vortexed for 15 sec, left to stand for 30 min at room temperature, and scavenging capacity was measured at a wavelength of 517 nm using a Multiskan GO microplate spectrophotometer (Thermo Fisher Scientific, Waltham, MA, USA).

SMILES | Aβ-GFP RNA levels (Aβ-GFP SH-SY5Y cells [1]) | Concentration effectively decreasing ROS levels caused by Aβ overexpression (Aβ-GFP SH-SY5Y cells [2]) [µM] | Neurite length, processes, and branches (Aβ-GFP SH-SY5Y cells [3]) | AChE activity [4] | Caspase 1 activity (caspase 1) | EC50 (Aβ-GFP SH-SY5Y cells [5]; Homo sapiens, SH-SY5Y, read-out: EC50 in Aβ aggregation inhibition (GFP fluorescence)) [µM] | Concentration significantly augmenting green fluorescence intensity (Aβ-GFP) (Aβ-GFP SH-SY5Y cells [5]; tested 1.2–5 μM, day 8) [µM] | EC50 [6] [µM]
COc1cc(/C=C/C(=O)CC(=O)/C=C/c2ccc(O)c(OC)c2)ccc1O [Curcumin, reference compound] | did not significantly modify | 2.5 to 5 | successfully ameliorated | reduced | reduced | 6.1 | 2.5 to 5 | 
O=c1c(O)c(-c2ccc(O)cc2)oc2cc(O)cc(O)c12 [Kaempferol, kaempferol, reference compound] |  |  |  |  |  |  |  | 28
